# Assay results from patent publication US6914045B2, “Glycopeptide antibiotics” (Wyeth Holdings Corporation, priority 2001, dated 2005).
# “And” between values parts separate entries of the source, which are not always exact repeats. Equal values may be shown once.
# Test system: Staphylococcus aureus
# Assay: zone of inhibition, agar well assay plate
# Type: cell-based
# Conditions: 25 μl of extract per 5 mm well, incubated overnight at 37° C.
# Description: Protocol for Assay Plate Staphylococcus aureus
# Inoculate 10 mL of Tryptic Soy Broth with a loopful of slant culture, Staphylococcus aureus, and place in a stationary rack at 37° C. After 16-18 hour incubation, the Optical Density (OD) of the culture is read@A600 nm, using a 1:10 dilution. OD should be between 0.1-0.3, and if not adjust with Tryptic Soy Broth. A 40 mL sample of Nutrient Agar, pH 6.8 is inoculated with 90 ul of S. aureus culture and poured into a sterile petri dish. When the agar has solidified, wells (5 mm) are plated using an automated welling device. Wells are inoculated with 25 μl of extract and incubated overnight at 37° C. Zones of inhibition are measured and recorded the following morning.
row,SMILES,Zone of Inhibition vs. S. aureus
1,"CC(C)CCC(=O)OC1C(CO)OC(OC2C(CO)OC(Oc3ccc(CC4NC(=O)C(C(C)c5ccccc5)NC(=O)CNC(=O)C(CO)NC(=O)C(C(O)C5CNC(=N)N5C5OC(CO)C(O)C(O)C5O)NC(=O)C(C(O)C5CNC(=N)N5)NC4=O)cc3)C(O)C2O)C(O)C1O (stereo not drawn) [Example 270c, Cyclo[glycyl-β-methylphenylalanyl-O-[4-O-[4-O-(4-methylpentanoyl)hexopyranosyl]-hexopyranosyl]tyrosyl-3-(2-iminoimidazolidin-4-yl)seryl-3-(3-hexopyranosyl-2-iminoimidazolidin-4-yl)serylseryl]]",11 mm
2,"CCC(C)CC(=O)OC1C(CO)OC(OC2C(CO)OC(Oc3ccc(CC4NC(=O)C(C(C)c5ccccc5)NC(=O)CNC(=O)C(CO)NC(=O)C(C(O)C5CNC(=N)N5C5OC(CO)C(O)C(O)C5O)NC(=O)C(C(O)C5CNC(=N)N5)NC4=O)cc3)C(O)C2O)C(O)C1O (stereo not drawn) [Example 271c, Cyclo[glycyl-β-methylphenylalanyl-O-[4-O-[4-O-(3-methylpentanoyl)hexopyranosyl]-hexopyranosyl]tyrosyl-3-(2-iminoimidazolidin-4 yl)seryl-3-(3-hexopyranosyl-2-iminoimidazolidin-4-yl)serylseryl]]",12 mm
3,"CCCC(=O)OC1C(O)C(CO)OC(OC2C(CO)OC(Oc3ccc(CC4NC(=O)C(C(C)c5ccccc5)NC(=O)CNC(=O)C(CO)NC(=O)C(C(O)C5CNC(=N)N5C5OC(CO)C(O)C(O)C5O)NC(=O)C(C(O)C5CNC(=N)N5)NC4=O)cc3)C(O)C2O)C1O (stereo not drawn) [Example 272b, Cyclo[glycyl-β-methylphenylalanyl-O-[4-O-(3-O-butanoyl-hexopyranosyl)-hexopyranosyl]tyrosyl-3-(2-iminoimidazolidin-4-yl)seryl-3-(3-hexopyranosyl-2-iminoimidazolidin-4-yl)serylseryl]]",8 mm
4,"CCCCCC(=O)OC1C(O)C(CO)OC(OC2C(CO)OC(Oc3ccc(CC4NC(=O)C(C(C)c5ccccc5)NC(=O)CNC(=O)C(CO)NC(=O)C(C(O)C5CNC(=N)N5C5OC(CO)C(O)C(O)C5O)NC(=O)C(C(O)C5CNC(=N)N5)NC4=O)cc3)C(O)C2O)C1O (stereo not drawn) [Example 273b, Cyclo[glycyl-β-methylphenylalanyl-O-[4-O-(3-O-hexanoyl-hexopyranosyl)-hexopyranosyl]tyrosyl-3-(2-iminoimidazolidin-4-yl)seryl-3-(3-hexopyranosyl-2-iminoimidazolidin-4-yl)serylseryl]]",9 mm and 8 mm
5,"CCCCCCC(=O)OC1C(OC2C(CO)OC(Oc3ccc(CC4NC(=O)C(C(C)c5ccccc5)NC(=O)CNC(=O)C(CO)NC(=O)C(C(O)C5CNC(=N)N5C5OC(CO)C(O)C(O)C5O)NC(=O)C(C(O)C5CNC(=N)N5)NC4=O)cc3)C(O)C2O)OC(CO)C(O)C1O (stereo not drawn) [Example 274a, Cyclo[glycyl-β-methylphenylalanyl-O-[4-O-(2-O-heptanoyl-hexopyranosyl)-hexopyranosyl]tyrosyl-3-(2-iminoimidazolidin-4-yl)seryl-3-(3-hexopyranosyl-2-iminoimidazolidin-4-yl)serylseryl]]",9 mm
6,"CCCCCCC(=O)OC1C(O)C(CO)OC(OC2C(CO)OC(Oc3ccc(CC4NC(=O)C(C(C)c5ccccc5)NC(=O)CNC(=O)C(CO)NC(=O)C(C(O)C5CNC(=N)N5C5OC(CO)C(O)C(O)C5O)NC(=O)C(C(O)C5CNC(=N)N5)NC4=O)cc3)C(O)C2O)C1O (stereo not drawn) [Example 274b, Cyclo[glycyl-β-methylphenylalanyl-O-[4-O-(3-O-heptanoyl-hexopyranosyl)-hexopyranosyl]tyrosyl-3-(2-iminoimidazolidin-4-yl)seryl-3-(3-hexopyranosyl-2-iminoimidazolidin-4-yl)serylseryl]]",10 mm
